# Target: T1, Human glucocorticoid receptors (Homo sapiens, UniProt P04150)
# T1 construct: made in house; host or cells: Sf9 insect cells, recombinant baculovirus (BAC-TO-BAC)
# T1 sequence (P04150 1-777): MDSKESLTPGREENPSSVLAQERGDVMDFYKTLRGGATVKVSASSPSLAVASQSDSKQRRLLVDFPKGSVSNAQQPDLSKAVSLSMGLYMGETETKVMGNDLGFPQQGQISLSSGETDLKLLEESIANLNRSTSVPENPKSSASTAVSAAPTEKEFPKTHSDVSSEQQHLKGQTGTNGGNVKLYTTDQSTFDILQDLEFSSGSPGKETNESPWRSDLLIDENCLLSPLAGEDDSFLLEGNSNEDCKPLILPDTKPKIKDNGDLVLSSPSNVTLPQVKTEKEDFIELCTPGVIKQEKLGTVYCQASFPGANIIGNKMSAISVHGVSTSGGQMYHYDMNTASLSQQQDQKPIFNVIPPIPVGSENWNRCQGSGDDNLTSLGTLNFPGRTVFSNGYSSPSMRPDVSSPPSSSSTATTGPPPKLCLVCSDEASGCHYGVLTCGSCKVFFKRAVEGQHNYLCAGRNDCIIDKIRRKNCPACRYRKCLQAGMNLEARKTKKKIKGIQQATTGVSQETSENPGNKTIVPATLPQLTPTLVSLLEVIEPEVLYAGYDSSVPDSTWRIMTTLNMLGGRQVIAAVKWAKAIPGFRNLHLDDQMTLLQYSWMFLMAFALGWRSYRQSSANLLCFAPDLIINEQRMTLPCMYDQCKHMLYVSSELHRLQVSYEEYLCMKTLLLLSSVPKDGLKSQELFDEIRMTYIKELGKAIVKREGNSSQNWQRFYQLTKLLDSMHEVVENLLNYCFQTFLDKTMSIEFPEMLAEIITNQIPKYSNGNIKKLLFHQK
# Test: Radioligand filter binding assay, displacement of 3[H]-dexamethasone from hGR
# Details: read-out: GR Binding (% Inhibition at 1.7 μM)
# From the text: Dexamethasone hereafter referred to as dex was purchased from SIGMA. […] Human glucocorticoid receptors were extracted from Sf9 cells infected with a recombinant baculovirus transfer vector containing the cloned hGR genes. Recombinant baculovirus was generated utilizing the BAC-TO-BAC expression system (Life Technologies) in accordance to instruction from the supplier. The hGR coding sequences were cloned into a baculovirus transfer vector by standard techniques. The recombinant baculoviruses expressing hGR were amplified and used to infect Sf9 cells. Infected cells were harvested 48 hrs post infection. […] The concentration of hGR in the extract was measured as specific ^3[H]-dex binding with the G25-assay as described in J. Steroid Biochem. Molec. […] The extract was aliquoted and stored at −70° C.
# The filter binding assay: Dilution series of the test compounds and dex as reference were made from 10 mM (1 mM dex) stock solutions in DMSO. 10 μl of the dilutions was added in duplicates to the wells. The cell extracts were diluted 10 fold in EPMo+MTG buffer (1 mM EDTA, HPO4 20 mM (pH8), 6 mM MTG). […] 110 μl of the diluted ^3[H]-dex were added to the wells. The final concentration of hGR in the experiment was estimated to 1 nM. All preparations were made in […] on ice and with +4° C. temperated buffers. The plates were incubated over night at +4° C. (15-20 hours).
# The incubation was stopped by filtration through GF/B filter on the Tomtec Cellharvester. The filtration on the Tomtec Cellharvester was programmed as follows: 1) Preparation before filtration with EP buffer (1 mM EDTA 20 mM HPO4 (pH8)) 2×[Wash/Asp 0.6 sec., Asp 0.5 sec.]; 2) Prewet of GF/B filter with EP+PEI buffer (EP buffer, 0.3% Polyethylenimine) [Asp 0.8 sec.]; 3) Filtration/harvesting of the 96-well incubation plate 3×[Wash/Asp 0.6 sec., Asp 0.5 sec.]. The GF/B filter was dried for at least 1 hour at 65° C. A MeltiLex scintillation wax was melted onto the filter with the Microsealer. The filter was placed in a samplebag, which was thereafter trimmed with scissors to fit the filter cassette. The cassette were placed in the Microbeta and measured for 1 min/position, returning ccpm (corrected counts per minute).
# b=((bmax−bmin)/(1+(I/IC50)^S))+bminI
# The Microbeta-instrument generates the mean cpm (counts per minute) value/minute and corrects for individual variations between the detectors thus generating corrected cpm values.
row,inhibition at 1.7 µM [%],SMILES
1,94.2,"CCCCCCc1ccc(Oc2ccc(CN(Cc3ccc(F)cc3F)c3cccc(NS(C)(=O)=O)c3C)cc2)cc1OCC(=O)O [Example 238, (5-{4-[((2,4-difluorobenzyl){2-methyl-3-[(methylsulfonyl)amino]phenyl}amino)methyl]phenoxy}-2-hexylphenoxy)acetic acid]"
2,96.3,"Cc1c(NS(C)(=O)=O)cccc1N(Cc1ccc(Oc2ccc(Cl)c(OCC(=O)O)c2)cc1)Cc1ccc(F)c(F)c1 [Example 313, (2-chloro-5-(4-(((3,4-difluorobenzyl)(2-methyl-3-((methylsulfonyl)amino)phenyl)amino)methyl)phenoxy)phenoxy)acetic acid]"
3,97,"Cc1c(NS(C)(=O)=O)cccc1N(Cc1ccc(Oc2ccc(Cl)c(OCC(=O)O)c2)cc1)Cc1ccccc1F [Example 306, (2-chloro-5-(4-(((2-fluorobenzyl)(2-methyl-3-((methylsulfonyl)amino)phenyl)amino)methyl)phenoxy)phenoxy)acetic acid]"
4,90.6,"Cc1c(NS(C)(=O)=O)cccc1N(Cc1ccccc1)Cc1ccc(Oc2ccc(OCCCC(=O)Nc3cc(C(=O)O)n(C)c3)cc2)cc1 [Example 257, 4-{[4-(4-{4-[(benzyl{2-methyl-3-[(methylsulfonyl)amino]phenyl}amino)methyl]phenoxy}phenoxy)butanoyl]amino}-1-methyl-1H-pyrrole-2-carboxylic acid]"
5,97,"Cc1c(NS(C)(=O)=O)cccc1N(Cc1ccc(Oc2ccc(Cl)c(OCC(=O)O)c2)cc1)Cc1ccccc1Br [Example 307, (5-(4-(((2-bromobenzyl)(2-methyl-3-((methylsulfonyl)amino)phenyl)amino)methyl)phenoxy)-2-chlorophenoxy)acetic acid]"
6,96.1,"CCc1ccc(Oc2ccc(CN(Cc3ccc(F)cc3F)c3cccc(NS(C)(=O)=O)c3C)cc2)cc1OCC(=O)O [Example 236, (5-{4-[((2,4-difluorobenzyl){2-methyl-3-[(methylsulfonyl)amino]phenyl}amino)methyl]phenoxy}-2-ethylphenoxy)acetic acid]"
7,94.1,"Cc1c(NS(C)(=O)=O)cccc1N(Cc1ccccc1)Cc1ccc(C(=O)c2cccc(OCCC3CC3)c2)cc1 [Example 242, N-[3-(benzyl{4-[3-(2-cyclopropylethoxy)benzoyl]benzyl}amino)-2-methylphenyl]methanesulfonamide]"
8,95.1,"Cc1c(NS(C)(=O)=O)cccc1N(Cc1ccc(Oc2ccc(Cl)c(OCC(=O)NCCCC(=O)O)c2)cc1)Cc1ccc(F)cc1F [Example 318, 4-(((2-chloro-5-(4-(((2,4-difluorobenzyl)(2-methyl-3-((methylsulfonyl)amino)phenyl)amino)methyl)phenoxy)phenoxy)acetyl)amino)butanoic acid]"
9,96.5,"Cc1c(NS(C)(=O)=O)cccc1N(Cc1ccc(Oc2ccc(Cl)c(OCC(=O)NCCC(=O)O)c2)cc1)Cc1ccc(F)cc1F [Example 317, N-((2-chloro-5-(4-(((2,4-difluorobenzyl)(2-methyl-3-((methylsulfonyl)amino)phenyl)amino)methyl)phenoxy)phenoxy)acetyl)-beta-alanine]"
10,94.9,"CCOC(=O)CCCOc1ccc(Oc2ccc(CN(Cc3ccccc3)c3cccc(NS(C)(=O)=O)c3C)cc2)cc1 [Example 232, ethyl 4-(4-{4-[(benzyl{2-methyl-3-[(methylsulfonyl)amino]phenyl}amino)methyl]phenoxy}phenoxy)butanoate]"
11,93.3,"Cc1c(NS(C)(=O)=O)cccc1N(Cc1ccccc1)Cc1ccc(Oc2cccc(OCCCC(=O)N(C)CC(=O)O)c2)cc1 [Example 240, N-[4-(3-{4-[(benzyl{2-methyl-3-[(methylsulfonyl)amino]phenyl}amino)methyl]phenoxy}phenoxy)butanoyl]-N-methylglycine]"
12,89.8,"Cc1c(NS(C)(=O)=O)cccc1N(Cc1ccccc1)Cc1ccc(Oc2cccc(OC3CCOC3)c2)cc1 (stereo not shown) [Example 288, N-[3-(benzyl{4-[3-(tetrahydrofuran-3-yloxy)phenoxy]benzyl}amino)-2-methylphenyl]methanesulfonamide]"
13,93.6,"Cc1c(NS(C)(=O)=O)cccc1N(Cc1ccccc1)Cc1ccc(Oc2ccc(OCCCC(=O)N[C@@H](CCC(=O)O)C(=O)O)cc2)cc1 [Example 255, N-[4-(4-{4-[(benzyl{2-methyl-3-[(methylsulfonyl)amino]phenyl}amino)methyl]phenoxy}phenoxy)butanoyl]-L-glutamic acid]"
14,72.5,"Cc1c(NS(C)(=O)=O)cccc1N(Cc1ccccc1Br)C(C#N)c1ccccc1 (stereo not shown) [Example 37, N-(3-{(2-bromobenzyl)[cyano(phenyl)methyl]amino}-2-methylphenyl)methanesulfonamide]"
15,89.2,"Cc1c(NS(C)(=O)=O)cccc1N(Cc1ccccc1)Cc1ccc(Oc2cccc(OC3CCOCC3)c2)cc1 [Example 287, N-[3-(benzyl{4-[3-(tetrahydro-2H-pyran-4-yloxy)phenoxy]benzyl}amino)-2-methylphenyl]methanesulfonamide]"
16,88.1,"CC(=O)c1cccc(Oc2ccc(CN(Cc3ccc(F)cc3F)c3cccc(NS(C)(=O)=O)c3C)cc2)c1 [Example 140, N-{3-[[4-(3-acetylphenoxy)benzyl](2,4-difluorobenzyl)amino]-2-methylphenyl}methanesulfonamide]"
17,88.6,"Cc1c(NS(C)(=O)=O)cccc1N(Cc1ccccc1)Cc1ccc(C(=O)c2cccc(OCCc3ccccc3)c2)cc1 [Example 246, N-[3-(benzyl{4-[3-(2-phenylethoxy)benzoyl]benzyl}amino)-2-methylphenyl]methanesulfonamide]"
18,71.5,"COc1ccc(CN(Cc2ccccc2C#N)c2cccc(NS(C)(=O)=O)c2C)c(F)c1 [Example 21, N-{3-[(2-cyanobenzyl)(2-fluoro-4-methoxybenzyl)amino]-2-methylphenyl}methanesulfonamide]"
19,97,"Cc1c(NS(C)(=O)=O)cccc1N(Cc1ccc(Oc2ccc(Cl)c(OCC(=O)O)c2)cc1)Cc1ccc(Br)cc1F [Example 315, (5-(4-(((4-bromo-2-fluorobenzyl)(2-methyl-3-((methylsulfonyl)amino)phenyl)amino)methyl)phenoxy)-2-chlorophenoxy)acetic acid]"
20,77.9,"Cc1c(NS(C)(=O)=O)cccc1N(Cc1ccccc1)Cc1ccc2c(c1)OCO2 [Example 15, N-{3-[(1,3-benzodioxol-5-ylmethyl)(benzyl)amino]-2-methylphenyl}methanesulfonamide]"
21,97.2,"Cc1c(NS(C)(=O)=O)cccc1N(Cc1ccc(Oc2ccc(CCCC(=O)O)cc2)cc1)Cc1ccc(F)cc1F [Example 74, 4-(4-{4-[((2,4-difluorobenzyl){2-methyl-3-[(methylsulfonyl)amino]phenyl}amino)methyl]phenoxy}phenyl)butanoic acid]"
22,89.7,"Cc1c(NS(C)(=O)=O)cccc1N(Cc1ccccc1)Cc1ccc(Oc2cccc(OC[C@H](O)CO)c2)cc1 [Example 285, N-(3-{benzyl[4-(3-{[(2R)-2,3-dihydroxypropyl]oxy}phenoxy)benzyl]amino}-2-methylphenyl)methanesulfonamide]"
